Test results published in article PMC7757987, “Antitumor Activity and Mechanism Study of Riluzole and Its Derivatives” (Iranian Journal of Pharmaceutical Research : IJPR, 2020).

Assays:
[1] = system: HepG2 (human liver cancer cell line); assay: CCK-8 anti-proliferative assay, HepG2; assay type: cell-based
Method: (§1) HeLa (human cervical cancer cell line), HepG2 (human liver cancer cell line), SP2/0 (mouse myeloma cell line), and LO2 (human normal liver cell line) were cultured in DMEM medium. Each medium was supplemented with 10% fetal bovine serum, 1% L-glutamine and 1% penicillin/streptomycin solution. The cell lines were kept in the incubator at 37 ℃ in a humidified atmosphere (90% RH) containing 5% CO2. […] The cell lines SP2/0 and MCF-7 were obtained from Laboratory Center of Shaanxi Province People’s Hospital.
(§2) 2×10^3 cells per well were planted into 96-well plates in 100 μL growth medium and incubated for 24 h. […] The mixture was incubated at 37 ℃ under a humidified 5% CO2 atmosphere. After incubation, 10 μL CCK-8 solution was added to each well and the cells were further incubated for 2 h at 37 ℃ according to the CCK-8 Technical Manual. Then, the OD value for each well was read at wavelength 450 nm to determine the cell viability on a microplate reader (Synergy HT, USA). […] The independent experiment was repeated at least three times. The percentage of growth inhibition was calculated as follows according to reference ([18]),
(§3) % of growth inhibition = [1 - absorbance of treated cells/absorbance of untreated cells] × 100%

[2] = system: LO2 (human normal liver cell line); assay: CCK-8 cytotoxicity assay, normal LO2 cells; assay type: cell-based; settings: CCK-8
Method: as §1, §2, §3

[3] = CCK-8 cytotoxicity assay, normal LO2 cells; assay type: cell-based, human; settings: human, LO2 normal liver cells; CCK-8, 48 h, normal liver cells; read-out: Cytotoxicity (IC50) L02
Method: as §1, §2, §3

[4] = system: HeLa (human cervical cancer cell line); assay: CCK-8 anti-proliferative assay, HeLa; assay type: cell-based
Method: as §1, §2, §3

[5] = system: Bax, Bcl-2, Caspase-3, Cleaved caspase-3, PI3K in HeLa cells; assay: Western blot assay; assay type: cell-based, human; settings: 24 h; for Ratio of Bax/Bcl-2: HeLa, control 0.072
Method: HeLa cells were seeded into 6-well plates at 10^6 cells per well with different concentrations of compound 4a (12.5, 25 and 50 μmol/L) and incubated at 37 ℃ for 24 h in the presence of 10% FBS. The controls were treated with vehicle (0.5% DMSO). The cells were lysed into ice-cold cell lysis buffer for 30 min and centrifuged at 13000 g for 15 min at 4 ℃. The protein concentrations of the supernatant were determined by a BCA protein Assay Kit. Equal amounts of protein lysates were separated on 10% SDS-PAGE (sodium dodecyl sulfate-polyacrylamide gel electrophoresis) and transferred onto PVDF membranes. The membranes were blocked with 5% non-fat milk in TBST (0.1% Tween 20 in TBS) buffer for 2 h, incubated with primary antibodies at 1:1000 dilutions at 4 ℃, and washed by TBST four times. Then, the membrane was immunobloted with Bax, Bcl-2, Caspase-3, Cleaved caspase-3, PI3K, and β-actin primary antibodies at 1:1000 dilutions at 4 °C for 12 h. After secondary incubation in horseradish peroxidase-conjugated secondary antibodies at 1:3000 at room temperature for 2 h, protein bands were visualized on X-ray film (Kodak, Japan) using ECL (Beyotime, China). The immunoblots were detected by densitometric analysis. Equal loading of protein in each lane was confirmed by probing with β-actin antibody ([24]).

HeLa cells [6] = assay: Cell morphological assessment by Hoechst 33258 staining; assay type: cell-based, human; settings: HeLa, 12.5, 25 and 50 μmol/L, 24 h
Method: The cell morphological assessment was carried out as described by Wang S ([21]). Morphological changes, such as chromosomal condensation and fragmentation in the nuclei of HeLa, were observed by Hoechst 33258 staining. In brief, HeLa cells were seeded at a concentration of 1×10^6 cells/well in 6-well plate and treated with compound 4a (12.5, 25 and 50 μmol/L) for 24 h. Subsequently, the cells were harvested and washed once with PBS and then fixed with 4% paraformaldehyde in PBS for 10 min. After staining with 10 mg/L Hoechst 33258 for 5 min, the cells were visualized under a fluorescent microscope (Nikon, Japan).

HeLa cells [7] = assay: Flow cytometric analysis of the cell cycle (PI); assay type: cell-based, human; settings: 24 h, control 3.66%
Method: Cell cycle assay was performed using the cell cycle and apoptosis analysis kit (Beyotime, China) and following the manufacturer’s instructions. The HeLa cells were treated with the indicated concentrations of compound 4a (12.5, 25 and 50 μmol/L) for 24 h. Next, the cells were harvested and washed twice with PBS. The cells were fixed with cold 70% ethanol for 12 h at 4 ℃ and were harvested and centrifuged at 1000 g for 5 min. Then, the cell density was adjusted to 1×10^6 cells/mL with PBS. Finally, the cells were stained with a propidium iodide (PI) solution (50 μg/mL). The number of cells in each phase of the cell cycle was analyzed by flow cytometry (FACSCalibur; BD Bioscience, USA).

HeLa cells [8] = assay: Flow cytometric analysis of cell apoptosis (annexin V-FITC/PI); assay type: cell-based, human; settings: 24 h, control 0.02%
Method: The cell apoptosis analysis was evaluated by using the annexin V-FITC apoptosis detection kit (Beyotime, China). Briefly, the HeLa cells (1×10^6 cells/well) were seeded into 6-well culture plates and incubated for 24 h. Then the cells were incubated for 24 h with the compound 4a (12.5, 25 and 50 μmol/L). The cells were then rinsed, resuspended in 60 μL binding buffer and incubated for 10 min with 5 μL annexin V-FITC at room temperature, followed by an addition of 120 μL binding buffer and 10 μL PI. The solutions were gently mixed and analyzed with the FACScan flow cytometry. The cells that were not treated were used as the control ([23]).

HeLa cells [9] = assay: Scratch wound healing (anti-migration) assay; assay type: cell-based, human; settings: 25 μmol/L, 24 h
Method: Once the monolayer was formed, a small scratch was made in the plate using a 10 μL pipette tip (0 h, day 1). The monolayer was once washed with PBS to remove debris or the detached cells from the monolayer. […] Images were taken using an inverted microscope ([19]). The experiments were performed in triplicate.
The relative scratch healing rate was calculated as follows according to reference ([20]),
Scratch healing rate = (scratch width at 0 h – the remaining scratch width at 24 h)/scratch width in 0 h×100%

[10] = system: MCF-7 (human breast cancer cell line); assay: CCK-8 anti-proliferative assay, MCF-7; assay type: cell-based
Method: as §1, §2, §3

[11] = system: SP2/0 (mouse myeloma cell line); assay: CCK-8 anti-proliferative assay, SP2/0; assay type: cell-based
Method: as §1, §2, §3

## CCNc1nc2ccc(OC(F)(F)F)cc2s1 [Compound 4a, 2-(N-ethylamine)-6-trifluoromethoxy-benzothiazole]
[1]; Homo sapiens, HepG2, CCK-8, 48 h, read-out: Cytotoxicity (IC50) HepG2
  IC50: 33.7 ± 1.04 µM
[1]; IC50 LO2 / IC50 HepG2
  Selectivity index (SI) HepG2: 1.93
[2]
  Concentration up to which nontoxic to LO2 cells: up to 65 μmol/L
[3]
  IC50 at 48 h: 65 ± 4.38 µM
other
  melting point: 133 to 134 °C
[4]; Homo sapiens, HeLa, CCK-8, 48 h, read-out: Cytotoxicity (IC50) HeLa
  IC50: 7.76 ± 0.45 µM
[4]; IC50 LO2 / IC50 HeLa
  Selectivity index (SI) HeLa: 8.37
[5]; 12.5μM
  Ratio of Bax/Bcl-2: 0.087
[5]; 25μM
  Ratio of Bax/Bcl-2: 1.092
[5]; 50μM
  Ratio of Bax/Bcl-2: 1.929
[5]; HeLa, 12.5, 25 and 50 μmol/L
  Expression level of Caspase-3: not remarkably concentration-dependent change
  Expression level of PI3K: not remarkably concentration-dependent change
  Expression of Bcl-2: reduced
  Level of Bax: increased
  Level of Cleaved caspase-3: increased
HeLa cells [6]
  Nuclear morphology (Hoechst 33258): nuclear condensation and fragmentation
HeLa cells [7]; 12.5 μmol/L
  Cells in the G2/M phase: 3.85%
HeLa cells [7]; 25 μmol/L
  Cells in the G2/M phase: 6.63%
HeLa cells [7]; 50 μmol/L
  Cells in the G2/M phase: 8.00%
HeLa cells [8]; 12.5 μmol/L
  Early apoptotic rate (LR quadrant): 4.76%
HeLa cells [8]; 25 μmol/L
  Early apoptotic rate (LR quadrant): 9.63%
HeLa cells [8]; 50 μmol/L
  Early apoptotic rate (LR quadrant): 19.81%
HeLa cells [9]
  Relative scratch healing rate: less than 20%
HeLa cells [9]; versus control group
  Effect on HeLa cell migration: significantly slower
[10]; Homo sapiens, MCF7, CCK-8, 48 h, read-out: Cytotoxicity (IC50) MCF-7
  IC50: 7.72 ± 0.53 µM
[10]; IC50 LO2 / IC50 MCF-7
  Selectivity index (SI) MCF-7: 8.41
[11]; IC50 LO2 / IC50 SP2/0
  Selectivity index (SI) SP2/0: 1.27
[11]; Mus musculus, CCK-8, 48 h, read-out: Cytotoxicity (IC50) SP2/0
  IC50: 51.1 ± 2.73 µM
